Source: patent US9115120B2, “Heterocyclic modulators of HIF activity for treatment of disease” (Board of Regents, The University of Texas System, priority 2012, dated 2015)
Where a name gives a salt, the structure may show the parent alone.

These molecules were tested on 293T-HRE-GFP-luc cells (assay: Cell-Based Reporter Assay for IC50 Determinations). Conditions: 30 min normoxia then 6 hrs hypoxia (1% O2), luminescence, four-parameter logistic fit, read-out: Activity (IC50, HRE luciferase reporter).
Description: Cell-Based Reporter Assay for IC50 Determinations
293T-HRE-GFP-luc cells were routinely maintained in DMEM media (high glucose version with GlutaMAX and HEPES, Gibco, catalog #10564) supplemented with 10% fetal bovine serum and 2 μg/mL puromycin (Invitrogen, catalog #A11138-03) using a humidified incubator (normoxia conditions consisting of 37° C., 5% CO2 and ambient O2).
In preparation for the reporter assay, cells were harvested and resuspended in DMEM media (high glucose version with GlutaMAX and HEPES) supplemented with 10% fetal bovine serum. Cells were inoculated into 384-well white Culturplates (Perkin Elmer catalog #6007680) at a density of 12,000 cells/well in a volume of […]. The microplates were incubated overnight (approximately 17-19 hours) at 37° C. with 5% CO2 and ambient O2. Stock solutions of the test compounds were prepared in DMSO (Sigma, Catalog #D2650) and serially diluted 1:3 using DMSO. Compounds were additionally diluted (1:50) with culturemedium and 10 µL were added per well to the Culturplate. Following a 30 min. incubation under normoxia conditions, the plates were incubated in hypoxia for 6 hrs. (37° C., 5% CO2 and 1% O2). Steadylite Plus (Perkin Elmer, catalog #6016751) was then added ([…]), the plates were mixed on an orbital shaker at room temperature in the dark for 15 min., and luminescence was measured using an Envision plate reader (Perkin Elmer). IC50 values were calculated using a four-parameter logistic curve fit. Results are shown below in Table 2; ND indicates no data.
In the case of `Cc1oc(-c2nc(-c3ccc(OC(F)(F)F)cc3)no2)nc1Cc1cccc(N2CCOCC2)c1` [Example 11, 4-(3-((5-Methyl-2-(3-(4-(trifluoromethoxy)phenyl)-1,2,4-oxadiazol-5-yl)oxazol-4-yl)methyl)phenyl)morpholine], the IC50 is reported as < 0.1 µM.
In the case of `CN1CCN(c2cc(Cc3nc(-c4nc(-c5ccc(OC(F)(F)F)cc5)no4)cn3C)ccn2)CC1` [Example 10, 5-(1-Methyl-2-((2-(4-methylpiperazin-1-yl)pyridin-4-yl)methyl)-1H-imidazol-4-yl)-3-(4-(trifluoromethoxy)phenyl)-1,2,4-oxadiazole], the IC50 is reported as < 0.1 µM.
For `Cc1nc(-c2nc(-c3ccc(OC(F)(F)F)cc3)no2)oc1Cc1cccc(N2CCN(C)CC2)c1` [Example 7, 1-Methyl-4-(3-((4-methyl-2-(3-(4-(trifluoromethoxy)phenyl)-1,2,4-oxadiazol-5-yl)oxazol-5-yl)methyl)phenyl)piperazin-1-ium trifluoroacetate], the IC50 was < 0.1 µM.
`Cc1sc(-c2nc(-c3ccc(OC(F)(F)F)cc3)no2)nc1Cc1cccc(N2CCN(C)CC2)c1` [Example 6, 1-methyl-4-(3-((5-methyl-2-(3-(4-(trifluoromethoxy)phenyl)-1,2,4-oxadiazol-5-yl)thiazol-4-yl)methyl)phenyl)piperazin-1-ium trifluoroacetate] was tested, and the IC50 was < 0.1 µM.
For `Cn1nc(-c2nc(-c3ccc(OC(F)(F)F)cc3)no2)nc1Cc1ccnc(N2CCNCC2)c1` [Example 8, 4-(4-((1-Methyl-3-(3-(4-(trifluoromethoxy)phenyl)-1,2,4-oxadiazol-5-yl)-1H-1,2,4-triazol-5-yl)methyl)pyridin-2-yl)piperazin-1-ium formate], the IC50 was < 0.1 µM.
For `Cc1nc(-c2nc(-c3ccc(OC(F)(F)F)cc3)no2)sc1Cc1cccc(N2CCN(C)CC2)c1` [Example 2, 5-(4-Methyl-5-(3-(4-methylpiperazin-1-yl)benzyl)thiazol-2-yl)-3-(4-(trifluoromethoxy)phenyl)-1,2,4-oxadiazole], the IC50 was < 0.1 µM.
`Cc1nc(-c2nc(-c3ccc(OC(F)(F)F)cc3)no2)oc1Cc1cccc(Br)c1` [Example 1, 5-(5-(3-Bromobenzyl)-4-methyloxazol-2-yl)-3-(4-(trifluoromethoxy)phenyl)-1,2,4-oxadiazole] showed an IC50 of 1 to 10 µM.
In the case of `Cc1oc(-c2nc(-c3ccc(OC(F)(F)F)cc3)no2)nc1Cc1cccc(N(C)C)c1` [Example 14, N,N-dimethyl-3-((5-methyl-2-(3-(4-(trifluoromethoxy)phenyl)-1,2,4-oxadiazol-5-yl)oxazol-4-yl)methyl)aniline], the IC50 is reported as < 0.1 µM.
`Cc1nc(-c2nc(-c3ccccc3)co2)sc1Cc1cccc(N2CCN(C)CC2)c1` [Example 3, 2-(4-Methyl-5-(3-(4-methylpiperazin-1-yl)benzyl)thiazol-2-yl)-4-phenyloxazole] was tested, and the IC50 was 1 to 10 µM.
`Cn1cc(-c2nc(-c3ccc(OC(F)(F)F)cc3)no2)nc1Cc1ccnc(N2CCNCC2)c1` [Example 12, 4-(4-((1-methyl-4-(3-(4-(trifluoro-methoxy)phenyl)-1,2,4-oxadiazol-5-yl)-1H-imidazol-2-yl)methyl)pyridin-2-yl)piperazin-1-ium formate] showed an IC50 of 1 to 10 µM.
Molecule `Cc1oc(-c2nc(-c3ccc(OC(F)(F)F)cc3)no2)nc1Cc1cccc(Br)c1` [Example 4, 5-(4-(3-Bromobenzyl)-5-methyloxazol-2-yl)-3-(4-(trifluoromethoxy)phenyl)-1,2,4-oxadiazole] has an IC50 of 1 to 10 µM.
In the case of `Cc1oc(-c2nc(-c3ccc(OC(F)(F)F)cc3)no2)nc1Cc1cccc(N2CCCCC2)c1` [Example 13], the IC50 is reported as < 0.1 µM.
`CN1CCN(c2cc(Cc3nc(-c4nc(-c5ccc(OC(F)(F)F)cc5)no4)nn3C)ccn2)CC1` [Example 9, 1-Methyl-4-(4-((1-methyl-3-(3-(4-(trifluoromethoxy)phenyl)-1,2,4-oxadiazol-5-yl)-1H-1,2,4-triazol-5-yl)methyl)pyridin-2-yl)piperazin-1-ium formate] was tested, and the IC50 was < 0.1 µM.
For `Cc1oc(-c2nc(-c3ccc(OC(F)(F)F)cc3)no2)nc1Cc1cccc(N2CCN(C)CC2)c1` [Example 5, 1-methyl-4-(3-((5-methyl-2-(3-(4-(trifluoromethoxy)phenyl)-1,2,4-oxadiazol-5-yl)oxazol-4-yl)methyl)phenyl)piperazin-1-ium trifluoroacetate], the IC50 was < 0.1 µM.
